How the values were obtained:
Carbonic anhydrase 2 = Carbonic anhydrase 2 (Homo sapiens, UniProt P00918)
Description: Inhibition of human carbonic anhydrase 2 by stopped-flow CO2 hydrase assay

Carbonic anhydrase 15 = target: T1, Carbonic anhydrase 15 (Mus musculus, UniProt Q99N23)
T1 sequence (Q99N23 whole entry): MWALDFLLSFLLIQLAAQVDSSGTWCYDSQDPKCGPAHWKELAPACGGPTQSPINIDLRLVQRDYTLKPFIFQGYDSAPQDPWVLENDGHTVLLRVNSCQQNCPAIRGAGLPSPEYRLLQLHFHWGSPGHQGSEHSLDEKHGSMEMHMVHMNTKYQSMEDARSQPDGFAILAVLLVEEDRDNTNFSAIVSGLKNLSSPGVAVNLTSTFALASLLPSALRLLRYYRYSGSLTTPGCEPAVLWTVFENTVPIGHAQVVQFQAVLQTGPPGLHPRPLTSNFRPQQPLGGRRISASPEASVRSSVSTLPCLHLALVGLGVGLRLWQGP
Description: Inhibition of mouse recombinant carbonic anhydrase 15 by stopped-flow CO2 hydrase assay

Carbonic anhydrase 1 = Carbonic anhydrase 1 (Homo sapiens, UniProt P00915)
Sequence of Carbonic anhydrase 1 (P00915 whole entry): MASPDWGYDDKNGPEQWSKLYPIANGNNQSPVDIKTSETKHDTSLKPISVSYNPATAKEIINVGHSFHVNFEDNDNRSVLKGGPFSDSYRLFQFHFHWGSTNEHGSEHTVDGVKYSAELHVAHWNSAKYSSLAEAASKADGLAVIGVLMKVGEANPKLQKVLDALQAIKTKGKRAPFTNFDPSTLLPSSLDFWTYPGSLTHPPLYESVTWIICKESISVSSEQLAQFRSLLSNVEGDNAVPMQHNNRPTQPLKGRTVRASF
Description: Inhibition of human carbonic anhydrase 1 by stopped-flow CO2 hydrase assay

Row | SMILES | Ki (Carbonic anhydrase 15) [µM] | Ki (Carbonic anhydrase 1) [µM] | Ki (Carbonic anhydrase 2) [µM]
1 | CC(=O)Nc1ccc(O)cc1 [ACETAMINOPHEN] | 9.23 | 10 | 6.2
2 | Oc1ccccc1 [PHENOL] | 10.5 | – | –
3 | Oc1ccccc1O [CATECHOL] | 10.2 | 4000 | 9.91
4 | N#Cc1ccc(O)cc1 [4-CYANOPHENOL] | 434 | 131 | –
5 | Nc1ccc(O)cc1 [4-AMINOPHENOL] | 335 | – | –

Second part, led by results:

Row | Ki (Carbonic anhydrase 15) [µM] | Ki (Carbonic anhydrase 1) [µM] | SMILES | Ki (Carbonic anhydrase 2) [µM]
6 | 9.32 | 9.8 | O=C(O)c1ccc(O)cc1 [PARABEN] | –
7 | 212 | 134 | Oc1cc(F)ccc1F | 870
8 | 11.3 | – | Oc1cc(F)cc(F)c1 | –
9 | 2.33 | – | Oc1c(I)cc(Cl)c2cccnc12 [CLIOQUINOL] | –
10 | 10.6 | 10.7 | Oc1ccc(O)cc1 [HYDROQUINONE] | –
11 | 385 | 795 | Oc1cccc(O)c1 [RESORCINOL] | –

Reference: ChEMBL document CHEMBL1145574, “Carbonic anhydrase inhibitors: Inhibition of the new membrane-associated isoform XV with phenols” (Bioorg Med Chem Lett, 2008)
